Laboratory results published in US9073851B2, “Compositions and methods for treating cancer” (Board of Regents, The University of Texas System, priority 2011, dated 2015).

Assays:
breast cancer cells = assay: Cell viability assay, breast cancer cell panel or cell line not stated; type: cell-based, human
Description: (§1) (aka proliferation assay, in this case MTS assay was used. MTS, MTT, XTT all similar assays often used as cell viability/toxicity assay). Cell viability in response to compounds such as 5NT and KD06 was studied with a tetrazolium/formazan based assay (MTS, Celltiter 96 aqueous one solution cell proliferation assay, Promega, WI) [Akar U, Chaves-Reyez A, Barria g Tari A, Sanguino A, Kondo Y, Kondo S, Arun B, Lopez-Berestein G, Ozpolat B: Silencing of Bcl-2 expression by small interfering RNA induces autophagic cell death in MCF-7 breast cancer cells. Autophagy 2008, 4:669-679, Ozpolat 2007 MCR]. Cells were seeded in 96 wells plates at a density of 1.5 to 3.0×10^3 cells per well in 100 μl of medium. Next day the medium was removed and cells were treated with the drug in 100 μl of medium for 72 hours. Plates were read at 490 nm wavelength in an Elisa plate reader (Kinetic Microplate Reader, Molecular Devices Corporation, Sunnyvale, Calif.).

[1] = test system: 5-HT1B or 5-HT1D receptor; assay: Effect on cell proliferation after siRNA knockdown of 5-HT1B or 5-HT1D receptor; type: cell-based
MCF10A = assay: MTS cell viability assay on normal breast epithelium; type: cell-based, human; conditions: at IC50 to IC90 doses in breast cancer cells (MCF7)
Description: as §1

5-HT1B/1D receptor = assay: cAMP levels; type: cell-based
MCF7 cells = assay: MTS cell viability/proliferation assay; type: cell-based, human
Description: (§2) Viable and dead cells were detected by the trypan blue exclusion assay, where viable cells (non-stained) with intact membrane are able to exclude the dye, while dead cells take up the coloring blue agent from the media. To quantitatively assess the viability and/or proliferation of cells a MTS assay was used, which incorporates a redox indicator that changes color in response to metabolic activity. To study cell viability in response to CaMK-III siRNA or control siRNA and plasmid encoding CaMK-III or empty plasmid transfection cells were seeded in 96-well plates at a density of 3×10^3 cells per well in 100 μl of medium. Next day the medium was removed and cells were transfected with siRNA at different concentrations in 100 μl of medium plus transfection mix. Two days after transfection, the medium was removed and replaced by 180 μl of medium plus 20 μl of MTS and the cells were incubated under normal conditions until the color changed. Plates were read at dual wavelengths (570-595 nm) in an Elisa plate reader (Kinetic Microplate Reader, Molecular Devices Corporation, Sunnyvale, Calif.).
as §1

MCF7 breast cancer cells = assay: Acridine orange staining of acidic vesicular organelles (autophagy), FACS; type: cell-based, human; conditions: for percentage of acridine orange positive cells: flow cytometry, control untreated cells 2%
Description: To determine the role of serotonin 5-HT1B receptor in cell survival and the mechanism of growth inhibition induced by HT1B inhibitors we investigated cell death in breast cancer cells. When 5-HT1B was inhibited by either SB224289 or SB216641 we detected marked induction of autophagy (FIG. 28A) as detected by acridine orange staining, apoptosis by Annexin V and necrosis by propidium iodide (PI) staining and FACS analysis (FIG. 28B) in MCF7 breast cancer cells. Induction of acidic vacuoles by acridine orange staining was also observed in MDA-MB231 cells after SB224289 treatment for 72 hours (p<0.05) (FIG. 28C).
(§3) To detect and quantify acidic vesicular organelles, we stained cells with acridine orange as described previously.^31 The number of acridine orange-positive cells was determined by fluorescence-activated cell sorting (FACS) analysis. Cell morphology was examined using fluorescence microscopy (Nikon, Melville, N.Y.) with the cells remaining in their culture flasks.

ERK (p42/p44) and LC3-II = assay: Western blot of p-ERK and LC3-II after 5-HT1B antagonists; type: cell-based, human; conditions: for phosphorylation of ERK (p42/p44): Western blot
Protocol: After treatment the cells were trypsinized and collected by centrifugation, and whole-cell lysates were obtained using a lysis buffer as described previously [Akar U, et al. Mol Cancer Res 2007: 5:241-249]. Total protein concentration was determined using a DC protein assay kit (Bio-Rad, Hercules, Calif.). Aliquots containing […] of total protein from each sample were subjected to sodium dodecyl sulfate-polyacrylamide gel electrophoresis (SDS-PAGE) with a 4-20% gradient and electrotransferred to nitrocellulose membranes. The membranes were blocked with 5% dry milk in Tris-buffered saline-Tween 20 (TBST), probed with primary antibodies anti EREK1/2 or p-ERK1/2 (Cell signaling), polyclonal LC3 antibody (Novus biologicals, Littleton, Colo.). The antibodies were diluted in TBST containing 2.5% dry milk and incubated at 4 C overnight. After the membranes were washed with TBST, they were incubated with horseradish peroxidase-conjugated anti-rabbit or anti-mouse secondary antibody (Amersham Life Science, Cleveland, Ohio). Mouse anti-actin and donkey anti-mouse secondary antibodies (Sigma Chemical, St. Louis, Mo.) were used to monitor-actin expression to ensure equal loading of proteins. Chemiluminescent detection was performed with Chemi-glow detection reagents (Alpha Innotech, San Leandro, Calif.). The blots were visualized with a FluorChem 8900 imager and quantified by a densitometer using the Alpha Imager application program (Alpha Innotech, San Leandro, Calif.).

MCF-7 cells [2] = assay: Clonogenic survival assay; type: cell-based, human; conditions: various concentrations over two weeks, vs untreated
Protocol: (§4) To study the effect of CaMK-III growth of ER(−) and ER(+) breast cancer cells we performed a clonogenic assay, which is based on the ability of a single cell to grow into a colony (Franken N A, et al. Nat Protoc 2006: 1:2315-9), using MDA-MB-231 and MCF-7 cells, respectively. Cells were transfected with either CaMK-III or control siRNA (50 nM) […] over a period of two weeks.
(§5) This assay is an in vitro cell survival assay based on the ability of a single cell to grow into a colony. Briefly, cells (500 cells/well) were transfected with control siRNA or CaMK-III siRNA every week and grown for 2 to 3 weeks. Cells were stained with crystal violet and colonies were counted. Each experiment was repeated twice.
To study the effect of 5-HT1B on the survival and colony formation of breast cancer cells a clonogenic survival assay was performed using various concentrations of […] over a period of two weeks. This assay is based on the ability of a single cell to grow into a colony [Franken N A, et al. Nat Protoc 2006: 1:2315-2319]. […] Cell death and detachment as well as reduced cell number was observed.
This assay is an in vitro cell survival assay based on the ability of a single cell to grow into a colony. […] Cells were stained with crystal violet and colonies cells were counted. […]

[3] = mouse, in vivo
MCF7 and MDA-MB231 cells = assay: Acridine orange autophagy assay with MEK inhibitor PD98059; type: cell-based, human
Protocol: as §3

MCF7/Dox resistant cells = assay: MTS cell viability/proliferation assay; type: cell-based, human; conditions: MTS assay
Description: as §2, §1

MDA-MB-231 cells [4] = assay: MTS cell viability/proliferation assay; type: cell-based, human; conditions: MTS assay, MB-231
Description: Viable and dead cells were detected by the trypan blue exclusion assay, the viability and/or proliferation of cells a MTS assay was used [Akar U, et al. Autophagy 2008: 4:669-79].
as §2, with “Two days after transfection, the medium was removed and replaced by 180 μl of medium plus 20 μl of MTS and the cells were incubated under normal conditions until the color changed.” left out
(aka proliferation assay, in this case MTS assay was used. MTS, MTT, XTT all similar assays often used as cell viability/toxicity assay). […] Plates were read at 490 nm wavelength in an Elisa plate reader (Kinetic Microplate Reader, Molecular Devices Corporation, Sunnyvale, Calif.).

[5] = test system: STAT3, Bcl-2 and PI3K/Akt pathways; assay: Signaling pathways after SB-224289 in breast cancer cells; type: cell-based; conditions: preliminary studies
MCF-7 cells [6] = assay: Apoptosis / cell death in MCF-7 cells (Annexin V, FACS); type: cell-based, human; conditions: Annexin V, MCF cells
Protocol: (§6) Apoptosis was assessed by an Annexin V assay, monitoring PARP and caspase 9 cleavage by Western blot. To provide a comparative assay of apoptosis by Annexin V labeling, tumor cells (1×10^6) treated with CaMK-III siRNA or control siRNA for 24 to 96 hours were harvested and washed with PBS. Cells were resuspended in binding buffer and stained with Annexin V and propidium iodide (PI) according to the manufacturer's protocol (BD Pharmingen Annexin V kit, San Diego, Calif.). Positive cells were detected and quantified by FACS analysis.

MDA-MB-231 cells [7] = assay: Annexin V staining and FACS analysis of apoptosis; type: cell-based, human
Protocol: To investigate whether inhibition of CaMK-III sensitizes drug (doxorubicin)-resistant MCF7/DoxR and MDA-MB-231 cells to chemotherapy, cells were treated with either CaMK-III (50 nM) or control siRNA (50 nM) for 24 hours and then with doxorubicin (ED50 dose) for 48 hours. The ED50 of doxorubicin was determined from a dose-escalation study in a proliferation assay. […] To determine the percent of cells undergoing apoptosis in response to doxorubicin alone and in combination with CaMK-III siRNA was detected by Annexin V staining and FACS analysis.
as §6

MDA-MB-231 cells [8] = assay: Clonogenic survival assay; type: cell-based, human; conditions: paclitaxel 2 nM + CaMK-III siRNA
Protocol: as §4, §5
This assay is an in vitro cell survival assay based on the ability of a single cell to grow into a colony. Briefly, cells (500 cells/well) were transfected with different siRNA as described above and at 48 h post-transfection, cells were trypsinized and seeded into 6-well plates in the medium (500 cells/mL). Cells were transfected with control siRNA or CaMK-III siRNA every week and grown for 2 to 3 weeks. Cells were stained with crystal violet and colonies cells were counted. Each group was assayed in triplicate dishes, and each experiment was repeated twice.

[9] = test system: ER+ MCF-7 breast cancer cells; assay: Cell proliferation on serotonin treatment (cell counting); type: cell-based, human

CCCCCCCCCCCCOc1ccc2[nH]cc(CCN)c2c1.Cl [KD06]
potency relative to 5-NT (breast cancer cells): more potent than 5-NT | cell survival (O.D.) in a large panel of breast cancer cells (breast cancer cells; incl. MDA-468, BT20, MDa-MB231, SKBR3, MDA-MB435, T47D, ZR75.1): effective against almost all breast cancer cell lines | effect of compound after knockdown of 5-HT1B or 5-HT1D receptor [1]: blunts the effect | toxicity against normal breast epithelium (MCF10A): not toxic | cAMP levels (5-HT1B/1D receptor): decrease cAMP levels

COc1ccc(NC(=O)c2ccc(-c3ccc(-c4noc(C)n4)cc3C)cc2)cc1OCCN(C)C [SB216641]
cell viability (MCF7 cells; antagonist alone): 31% | cell viability (MCF7 cells; with 3-MA, p<0.05): 71% | percentage of acridine orange positive cells (MCF7 breast cancer cells): 17% | phosphorylation of ERK (p42/p44) (ERK (p42/p44) and LC3-II): induced phosphorylation of ERK (p42/p44)

Cc1nc(-c2ccc(-c3ccc(C(=O)N4CCc5cc6c(cc54)C4(CCN(C)CC4)CO6)cc3)c(C)c2)no1 [SB224289]
colony formation (MCF-7 cells [2]): grew more slowly and produced fewer colonies | toxicity in mice [3]: quite toxic in mice | percent positive cells with autophagy (MCF7 and MDA-MB231 cells; antagonist alone): 29.2% | percent positive cells with autophagy (MCF7 and MDA-MB231 cells; with ERK inhibitor (MEK inhibitor PD98059)): 18% | inhibition of cell proliferation (MCF7/Dox resistant cells): dose-dependent inhibition | EC50 (MCF7 cells; Homo sapiens, MCF7, MCF cells): 4.4 µM | inhibition of cell proliferation (MCF7 cells; MTS assay): dose-dependent inhibition | cell viability (MCF7 cells; antagonist alone): 42% | cell viability (MCF7 cells; with 3-MA, p<0.05): 61% | incidence of autophagy (MCF7 breast cancer cells; antagonist alone): 22.4% | percentage of acridine orange positive cells (MCF7 breast cancer cells): 23% | incidence of autophagy (MCF7 breast cancer cells; with 3-MA): 12% | LC3-II, marker of autophagy (ERK (p42/p44) and LC3-II; MCF7 and MCF7/Dox-R cells): induction of LC3-II | phosphorylation of ERK (p42/p44) (ERK (p42/p44) and LC3-II): induced phosphorylation of ERK (p42/p44) | inhibition of cell proliferation (MDA-MB-231 cells [4]): dose-dependent inhibition | STAT3, Bcl-2 and PI3K/Akt pathways [5]: inhibits the STAT3 and Bcl-2 pathways, as well as the PI3K/Akt pathway | induction of apoptosis (MCF-7 cells [6]): induced apoptosis in a dose dependent manner

COc1cccc2c1C(=O)c1c(O)c3c(c(O)c1C2=O)C[C@@](O)(C(=O)CO)C[C@@H]3O[C@H]1C[C@H](N)[C@H](O)[C@H](C)O1 [doxorubicin]
apoptosis induced by doxorubicin (Annexin V positive cells) (MDA-MB-231 cells [7]; doxorubicin alone, 48 h): 5% | apoptosis induced by doxorubicin (Annexin V positive cells) (MDA-MB-231 cells [7]; doxorubicin with CaMK-III siRNA): 55%

CC(=O)O[C@H]1C(=O)[C@@]2(C)[C@H]([C@H](OC(=O)c3ccccc3)[C@]3(O)C[C@H](OC(=O)[C@H](O)[C@@H](NC(=O)c4ccccc4)c4ccccc4)C(C)=C1C3(C)C)[C@]1(OC(C)=O)CO[C@@H]1C[C@@H]2O [paclitaxel]
inhibition of colony formation by paclitaxel with CaMK-III siRNA (MDA-MB-231 cells [8]): enhances efficacy

NCCc1c[nH]c2ccc(O)cc12 [Serotonin, 5-hydroxytryptamine]
cell proliferation [9]: induced proliferation
